For 16 molecules, AC50 results are on record in ChEMBL document CHEMBL5291721, “A preclinical secondary pharmacology resource illuminates target-adverse drug reaction associations of marketed drugs” (Nat Commun, 2023).

Targets include Histamine H3 receptor (Homo sapiens, UniProt Q9Y5N1); Histamine H1 receptor (Homo sapiens, UniProt P35367); Motilin receptor (Homo sapiens, UniProt O43193).
Assay [1] has as its target T1, Alpha-2C adrenergic receptor (Homo sapiens, UniProt P18825).
T1 sequence (P18825 whole entry): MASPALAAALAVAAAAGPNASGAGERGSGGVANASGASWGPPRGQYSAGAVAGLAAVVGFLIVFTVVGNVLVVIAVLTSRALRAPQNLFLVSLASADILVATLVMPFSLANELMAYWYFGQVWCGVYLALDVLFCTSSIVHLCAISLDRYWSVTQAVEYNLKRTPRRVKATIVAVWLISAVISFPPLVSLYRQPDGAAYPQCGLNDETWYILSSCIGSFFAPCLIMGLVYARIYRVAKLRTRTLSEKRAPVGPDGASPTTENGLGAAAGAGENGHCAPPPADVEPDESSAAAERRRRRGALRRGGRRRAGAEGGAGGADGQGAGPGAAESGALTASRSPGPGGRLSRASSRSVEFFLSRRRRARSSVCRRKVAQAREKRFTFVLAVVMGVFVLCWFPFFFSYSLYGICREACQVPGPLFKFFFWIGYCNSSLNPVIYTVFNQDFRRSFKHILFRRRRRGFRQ
In kind it is functional.

Assay [2] deals with T2, Type-1 angiotensin II receptor (Homo sapiens, UniProt P30556).
T2 sequence (P30556 whole entry): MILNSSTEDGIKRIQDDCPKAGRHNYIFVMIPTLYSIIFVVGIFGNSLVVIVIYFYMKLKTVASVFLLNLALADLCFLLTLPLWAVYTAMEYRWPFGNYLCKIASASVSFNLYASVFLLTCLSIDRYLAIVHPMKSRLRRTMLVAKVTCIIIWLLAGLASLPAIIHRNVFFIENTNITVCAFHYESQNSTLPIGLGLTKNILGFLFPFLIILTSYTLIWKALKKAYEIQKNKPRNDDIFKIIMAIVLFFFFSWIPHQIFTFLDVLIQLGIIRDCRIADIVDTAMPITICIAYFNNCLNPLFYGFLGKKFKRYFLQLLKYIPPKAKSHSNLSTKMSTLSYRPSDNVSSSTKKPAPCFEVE

The target in assay [3] is T3, Cholecystokinin receptor type A (Homo sapiens, UniProt P32238).
T3 sequence (P32238 whole entry): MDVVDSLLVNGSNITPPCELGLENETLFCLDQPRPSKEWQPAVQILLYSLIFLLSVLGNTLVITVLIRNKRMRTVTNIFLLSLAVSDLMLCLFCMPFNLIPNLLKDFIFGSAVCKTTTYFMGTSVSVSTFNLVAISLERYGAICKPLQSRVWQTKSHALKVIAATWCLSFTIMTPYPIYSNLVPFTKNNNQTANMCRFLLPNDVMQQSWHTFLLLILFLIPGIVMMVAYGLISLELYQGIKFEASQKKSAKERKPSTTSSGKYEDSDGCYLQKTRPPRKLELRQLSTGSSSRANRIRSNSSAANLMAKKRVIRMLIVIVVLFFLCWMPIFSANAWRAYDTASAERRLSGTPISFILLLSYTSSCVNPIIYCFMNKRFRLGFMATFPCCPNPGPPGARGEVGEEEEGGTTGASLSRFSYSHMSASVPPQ

The next assay has as its target D(1A) dopamine receptor (Homo sapiens, UniProt P21728). In kind it is functional, cell-based.
The target in assay [4] is T4, Alpha-2B adrenergic receptor (Homo sapiens, UniProt P18089).
T4 sequence (P18089 whole entry): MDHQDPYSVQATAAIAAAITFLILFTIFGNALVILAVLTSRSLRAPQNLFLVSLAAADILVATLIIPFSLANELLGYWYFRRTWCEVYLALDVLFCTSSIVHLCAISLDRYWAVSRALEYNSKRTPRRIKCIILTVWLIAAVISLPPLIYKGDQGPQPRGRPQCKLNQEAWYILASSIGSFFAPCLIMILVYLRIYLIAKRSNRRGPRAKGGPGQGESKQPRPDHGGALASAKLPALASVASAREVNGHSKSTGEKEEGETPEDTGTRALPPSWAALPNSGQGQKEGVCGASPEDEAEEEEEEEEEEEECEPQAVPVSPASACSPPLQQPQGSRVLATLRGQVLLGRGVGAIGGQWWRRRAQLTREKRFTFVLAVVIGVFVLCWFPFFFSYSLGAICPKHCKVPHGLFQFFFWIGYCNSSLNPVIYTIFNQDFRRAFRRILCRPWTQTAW

The target in assay [5] is cGMP-inhibited 3',5'-cyclic phosphodiesterase 3A (Homo sapiens, UniProt Q14432). In kind it is functional.
Chain of cGMP-inhibited 3',5'-cyclic phosphodiesterase 3A (Q14432 whole entry): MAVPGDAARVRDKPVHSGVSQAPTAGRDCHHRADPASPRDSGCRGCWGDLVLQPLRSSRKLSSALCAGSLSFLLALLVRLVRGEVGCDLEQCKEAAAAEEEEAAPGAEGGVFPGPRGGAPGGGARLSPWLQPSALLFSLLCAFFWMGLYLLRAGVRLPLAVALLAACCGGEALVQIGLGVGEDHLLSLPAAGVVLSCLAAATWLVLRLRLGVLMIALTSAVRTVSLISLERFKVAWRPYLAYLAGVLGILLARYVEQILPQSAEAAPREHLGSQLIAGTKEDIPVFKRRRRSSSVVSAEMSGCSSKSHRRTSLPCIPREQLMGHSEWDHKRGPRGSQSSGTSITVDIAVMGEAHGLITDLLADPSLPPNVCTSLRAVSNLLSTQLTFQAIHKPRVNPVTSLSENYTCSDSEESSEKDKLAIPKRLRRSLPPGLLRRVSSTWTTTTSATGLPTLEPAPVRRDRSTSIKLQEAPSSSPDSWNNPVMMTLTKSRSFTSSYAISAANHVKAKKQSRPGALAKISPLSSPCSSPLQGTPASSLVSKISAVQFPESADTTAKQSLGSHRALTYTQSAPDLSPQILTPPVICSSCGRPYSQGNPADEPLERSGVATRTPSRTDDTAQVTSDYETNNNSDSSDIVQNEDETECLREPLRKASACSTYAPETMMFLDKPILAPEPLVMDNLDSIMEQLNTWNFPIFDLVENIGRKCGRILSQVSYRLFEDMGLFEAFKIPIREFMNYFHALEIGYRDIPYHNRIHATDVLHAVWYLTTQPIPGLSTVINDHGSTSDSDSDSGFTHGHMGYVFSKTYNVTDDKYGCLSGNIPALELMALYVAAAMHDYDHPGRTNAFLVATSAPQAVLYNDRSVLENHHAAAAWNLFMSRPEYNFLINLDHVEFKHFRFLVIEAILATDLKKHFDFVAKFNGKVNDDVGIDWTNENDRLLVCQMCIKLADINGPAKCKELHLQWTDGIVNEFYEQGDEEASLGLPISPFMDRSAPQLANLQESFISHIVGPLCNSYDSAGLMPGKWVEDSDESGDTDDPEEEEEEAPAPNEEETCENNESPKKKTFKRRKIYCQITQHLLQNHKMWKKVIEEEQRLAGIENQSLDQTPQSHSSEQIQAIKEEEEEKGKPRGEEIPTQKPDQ
Assay [6] has as its target 3',5'-cyclic-AMP phosphodiesterase 4D (Homo sapiens, UniProt Q08499). In kind it is functional.

A value given as a limit tells only on which side of the number the result lay.
Note: assay procedure not described here.

Chain of Histamine H3 receptor (Q9Y5N1 whole entry): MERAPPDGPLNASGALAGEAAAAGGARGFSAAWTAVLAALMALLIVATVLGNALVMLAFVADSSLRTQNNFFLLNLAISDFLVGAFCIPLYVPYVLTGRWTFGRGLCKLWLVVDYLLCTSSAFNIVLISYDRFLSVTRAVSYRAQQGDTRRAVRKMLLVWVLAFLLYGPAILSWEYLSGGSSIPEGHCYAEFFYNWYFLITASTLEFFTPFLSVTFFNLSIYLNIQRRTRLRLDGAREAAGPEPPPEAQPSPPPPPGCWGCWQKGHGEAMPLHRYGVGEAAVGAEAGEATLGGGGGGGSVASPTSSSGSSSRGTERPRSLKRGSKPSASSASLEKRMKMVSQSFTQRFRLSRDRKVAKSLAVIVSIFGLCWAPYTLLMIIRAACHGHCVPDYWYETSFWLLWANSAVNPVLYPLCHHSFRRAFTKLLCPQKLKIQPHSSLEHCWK
Chain of D(1A) dopamine receptor (P21728 whole entry): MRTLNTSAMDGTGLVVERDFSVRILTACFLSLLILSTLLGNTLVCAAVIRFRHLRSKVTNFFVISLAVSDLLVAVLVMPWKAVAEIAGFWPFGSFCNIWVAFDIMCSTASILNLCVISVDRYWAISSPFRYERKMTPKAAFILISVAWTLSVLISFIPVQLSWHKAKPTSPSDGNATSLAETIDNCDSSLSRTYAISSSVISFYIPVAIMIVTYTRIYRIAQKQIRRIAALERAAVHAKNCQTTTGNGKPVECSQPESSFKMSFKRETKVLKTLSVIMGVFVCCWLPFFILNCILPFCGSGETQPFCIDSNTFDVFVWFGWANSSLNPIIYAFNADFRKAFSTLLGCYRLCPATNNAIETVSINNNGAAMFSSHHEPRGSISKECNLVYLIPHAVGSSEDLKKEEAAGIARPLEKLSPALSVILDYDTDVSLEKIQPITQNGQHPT
Chain of 3',5'-cyclic-AMP phosphodiesterase 4D (Q08499 whole entry): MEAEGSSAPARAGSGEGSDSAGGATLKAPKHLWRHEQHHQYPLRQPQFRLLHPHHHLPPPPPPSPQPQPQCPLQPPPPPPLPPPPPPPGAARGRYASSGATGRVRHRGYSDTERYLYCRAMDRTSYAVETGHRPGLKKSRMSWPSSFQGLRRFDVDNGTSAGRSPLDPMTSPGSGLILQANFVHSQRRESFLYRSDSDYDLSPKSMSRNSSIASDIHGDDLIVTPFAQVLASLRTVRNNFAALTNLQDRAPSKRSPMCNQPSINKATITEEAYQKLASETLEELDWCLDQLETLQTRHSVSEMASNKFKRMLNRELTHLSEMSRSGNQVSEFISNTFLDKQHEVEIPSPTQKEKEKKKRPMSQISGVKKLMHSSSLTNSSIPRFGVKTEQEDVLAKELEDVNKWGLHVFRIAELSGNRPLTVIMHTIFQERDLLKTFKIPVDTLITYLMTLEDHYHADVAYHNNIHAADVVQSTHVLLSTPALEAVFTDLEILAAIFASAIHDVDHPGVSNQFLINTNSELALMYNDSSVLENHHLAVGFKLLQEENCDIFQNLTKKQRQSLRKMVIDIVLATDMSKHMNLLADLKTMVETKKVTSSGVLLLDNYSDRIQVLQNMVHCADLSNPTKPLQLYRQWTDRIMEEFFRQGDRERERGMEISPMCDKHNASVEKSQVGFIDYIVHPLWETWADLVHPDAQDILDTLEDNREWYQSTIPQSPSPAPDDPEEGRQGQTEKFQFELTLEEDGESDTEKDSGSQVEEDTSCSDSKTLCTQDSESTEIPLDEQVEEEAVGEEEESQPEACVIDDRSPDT
Chain of Histamine H1 receptor (P35367 whole entry): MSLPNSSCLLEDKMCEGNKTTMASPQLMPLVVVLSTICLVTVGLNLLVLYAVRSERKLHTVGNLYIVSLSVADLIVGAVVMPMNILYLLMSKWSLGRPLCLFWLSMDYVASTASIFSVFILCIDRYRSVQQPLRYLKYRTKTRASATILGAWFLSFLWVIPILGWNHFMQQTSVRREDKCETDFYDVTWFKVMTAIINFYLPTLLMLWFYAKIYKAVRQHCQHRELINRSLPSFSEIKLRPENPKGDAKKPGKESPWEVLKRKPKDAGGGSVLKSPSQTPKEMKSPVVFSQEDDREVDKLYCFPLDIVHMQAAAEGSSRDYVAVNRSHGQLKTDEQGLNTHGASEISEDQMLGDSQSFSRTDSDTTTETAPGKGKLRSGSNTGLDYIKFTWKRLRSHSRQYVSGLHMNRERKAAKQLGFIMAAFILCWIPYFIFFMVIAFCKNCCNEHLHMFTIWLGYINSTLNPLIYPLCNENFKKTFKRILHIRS
Chain of Motilin receptor (O43193 whole entry): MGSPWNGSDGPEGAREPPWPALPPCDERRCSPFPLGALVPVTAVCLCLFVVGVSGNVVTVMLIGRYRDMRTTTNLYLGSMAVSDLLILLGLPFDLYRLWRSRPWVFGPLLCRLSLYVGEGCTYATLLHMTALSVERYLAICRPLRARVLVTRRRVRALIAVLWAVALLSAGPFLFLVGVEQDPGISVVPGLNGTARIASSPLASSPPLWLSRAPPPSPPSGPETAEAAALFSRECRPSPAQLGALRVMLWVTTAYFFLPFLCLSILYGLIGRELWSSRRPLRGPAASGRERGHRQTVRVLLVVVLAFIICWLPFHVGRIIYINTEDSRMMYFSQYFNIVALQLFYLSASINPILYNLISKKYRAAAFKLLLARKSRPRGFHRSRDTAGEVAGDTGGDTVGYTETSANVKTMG

As for `Oc1cc(Cl)ccc1Oc1ccc(Cl)cc1Cl` [TRICLOSAN], the AC50 (commonly the concentration at which the activity in the assay is half-maximal) in assay [1] is more than 30 µM; in [2] it was 24 µM; in [3] it was more than 30 µM; at D(1A) dopamine receptor it was more than 30 µM; in [4], more than 30 µM; on Histamine H3 receptor, more than 30 µM. The AC50 (at Histamine H1 receptor; on Motilin receptor; in assay [5]; in [6]) was more than 30 µM throughout.

`CC(C)(Oc1ccc(Cl)cc1)C(=O)OCCOC(=O)c1cccnc1` [ETOFIBRATE]: the AC50 (in [1]; in assay [2]; in assay [3]; at D(1A) dopamine receptor; in assay [4]; on Histamine H3 receptor) was more than 30 µM in each case. Also, the AC50 (at Histamine H1 receptor; on Motilin receptor; in assay [5]; in [6]) was more than 30 µM each time.

On to `CCn1c(=O)c2c(nc(/C=C/c3ccc(OC)c(OC)c3)n2C)n(CC)c1=O` [ISTRADEFYLLINE], for which the AC50 in assay [1] was more than 30 µM; at Histamine H1 receptor, more than 30 µM; in assay [5], more than 30 µM; in assay [6], 1.8 µM.

Regarding `COc1ccc(C(=O)c2ccccc2)c(O)c1` [OXYBENZONE], the AC50 was more than 30 µM in [1]; more than 30 µM at D(1A) dopamine receptor; more than 30 µM in [4]; 17 µM at Histamine H1 receptor; more than 30 µM in assay [5]; 26 µM in assay [6].

As to `CN(C)CCC(O)(c1ccccc1)c1ccccc1Cl` (configuration not stated) [CHLOPHEDIANOL], the AC50 (in [1]; in assay [2]; in assay [3]; at D(1A) dopamine receptor; in [4]; at Histamine H3 receptor) was more than 10 µM each time. The AC50 at Histamine H1 receptor is more than 10 µM; on Motilin receptor, more than 10 µM; in assay [5], more than 30 µM; in [6], more than 30 µM.

Regarding `Cc1ccc(O)c([C@H](CCN(C(C)C)C(C)C)c2ccccc2)c1` [TOLTERODINE], the concentration at half-maximal activity (AC50) in assay [1] was more than 10 µM; on D(1A) dopamine receptor it was more than 10 µM; in assay [4] it was more than 10 µM; at Histamine H3 receptor it was more than 30 µM; on Histamine H1 receptor, 4.06 µM.

Regarding `COc1ccc(-c2cc(=S)ss2)cc1` [ANETHOLTRITHION], the AC50 was more than 30 µM in assay [1]; 9.3 µM in [2]; more than 10 µM in assay [3]; more than 30 µM on D(1A) dopamine receptor; more than 30 µM in [4]; more than 10 µM on Histamine H3 receptor. Also, the AC50 was more than 30 µM at Histamine H1 receptor, more than 10 µM on Motilin receptor, more than 30 µM in [5] and more than 10 µM in assay [6].

As to `C[C@]12C=CC(=O)C=C1CC[C@@H]1[C@@H]2[C@@H](O)C[C@@]2(C)[C@H]1CC[C@]2(O)C(=O)CO` [PREDNISOLONE], the AC50 is more than 10 µM in assay [1]; more than 30 µM in [2]; more than 30 µM in assay [3]; more than 10 µM at D(1A) dopamine receptor; more than 10 µM at Histamine H3 receptor; more than 10 µM at Motilin receptor. Also, the concentration at half-maximal activity (AC50) in [5] and in assay [6] was more than 30 µM each time.

For `CN(C)[C@@H]1C(O)=C(C(=O)NCN2CCCC2)C(=O)[C@@]2(O)C(O)=C3C(=O)c4c(O)cccc4[C@@](C)(O)[C@H]3C[C@@H]12` [ROLITETRACYCLINE], the AC50 (in assay [1]; in [2]; in [3]; at D(1A) dopamine receptor; in assay [4]; at Histamine H3 receptor) was more than 10 µM throughout. Besides, the AC50 at Histamine H1 receptor was more than 10 µM; on Motilin receptor, more than 10 µM; in [5], more than 30 µM; in assay [6] it was more than 30 µM.

For `C[C@]12C=CC(=O)C=C1C(Cl)=C[C@@H]1[C@@H]2[C@@H](O)C[C@@]2(C)[C@H]1CC[C@]2(O)C(=O)CO` [CLOPREDNOL], the AC50 (in assay [1]; in [2]; in assay [3]; at D(1A) dopamine receptor; in assay [4]; at Histamine H3 receptor) was more than 30 µM each time. Also, the AC50 on Histamine H1 receptor is more than 30 µM; at Motilin receptor it was 16 µM; in assay [5], more than 30 µM; in assay [6], more than 30 µM.

Regarding `CC1(C)O[C@@H]2C[C@H]3[C@@H]4CCC5=CC(=O)C=C[C@]5(C)[C@@]4(F)[C@@H](O)C[C@]3(C)[C@]2(C(=O)CO)O1` [TRIAMCINOLONE ACETONIDE], the AC50 (in assay [1]; in assay [2]; in assay [3]; on D(1A) dopamine receptor; on Histamine H3 receptor; on Motilin receptor) was more than 30 µM in each case. The AC50 in [5] and in [6] was more than 30 µM in each case.

Take `C[C@]12CCC(=O)C=C1C=C[C@@H]1[C@@H]2CC[C@@]2(C)[C@H]1CC[C@@]21CCC(=O)O1` [CANRENONE]: the AC50 (in assay [1]; in assay [2]; in assay [3]; on D(1A) dopamine receptor; in [4]; on Histamine H3 receptor) was more than 30 µM throughout. Further, the AC50 (at Histamine H1 receptor; on Motilin receptor; in [5]; in assay [6]) was more than 30 µM in each case.

On to `CC(C)(C)NCC(O)COc1ccccc1C#N` (configuration not stated) [BUNITROLOL], for which the AC50 in [1] is more than 30 µM; at D(1A) dopamine receptor it was more than 30 µM; in [4], 26 µM; at Histamine H1 receptor, more than 30 µM; in assay [5] it was more than 30 µM; in assay [6] it was more than 30 µM.

Turning to `N=C(N)NC(=O)c1nc(Cl)c(N)nc1N` [AMILORIDE], the AC50 (in [1]; in assay [2]; in assay [3]; on D(1A) dopamine receptor; on Histamine H3 receptor; on Motilin receptor) was more than 30 µM throughout. In addition, the AC50 in [5] and in assay [6] was more than 30 µM throughout.

For `COc1cccc2c1C(=O)c1c(O)c3c(c(O)c1C2=O)C[C@@](O)(C(=O)CO)C[C@@H]3O[C@H]1C[C@H](N)[C@H](O)[C@H](C)O1` [DOXORUBICIN], the AC50 (in assay [1]; in assay [2]; in [3]; on D(1A) dopamine receptor; at Histamine H3 receptor; at Motilin receptor) was more than 30 µM throughout. Besides, the AC50 in assay [5] and in assay [6] was more than 30 µM throughout.

Turning to `Cc1cn(-c2cc(NC(=O)c3ccc(C)c(Nc4nccc(-c5cnccn5)n4)c3)cc(C(F)(F)F)c2)cn1` [RADOTINIB], the AC50 in assay [1] is more than 30 µM; on Histamine H1 receptor, more than 30 µM; in [5], 30 µM; in assay [6], more than 30 µM.
